{"source": "patent US20100125059A1", "about": "“1-BIARYLAZETIDINONE DERIVATIVE” (Teijin Pharma Limited, priority 2007, published 2010)", "test_system": "hamsters fed a high cholesterol diet", "test": "Measurement of lipid lowering effect in hamsters fed a high cholesterol diet", "format": "in vivo, Male Golden Syrian hamsters", "settings": "Mesocricetus auratus, po, 168 h, gavage once daily, 7 days", "protocol": "Male Golden Syrian hamsters are divided into groups each consisting of 6 animals and fed a controlled high cholesterol diet (CE-2 containing 0.5% cholesterol; CLEA Japan, Inc.) for 28 days at most. From the start of feeding of the high cholesterol diet, the test compounds are administered by gavage once daily. For the administration, 0.2 mL of corn oil alone per 100 g (control group) or a solution (or suspension) of the test compound in corn oil at a dose of 0.01 to 10 mg/kg was given. At the same time, a group fed with a normal diet during the same study period is handled as a normal group. 4 hours after the last administration, whole blood is collected from the abdominal aorta under light anesthesia with ether and serum is separated from the blood. Further, livers are harvested, wet liver weights are measured, and part (about 0.5 g) of the harvested livers are extracted and weighed. 2-propanol in an amount 4 times the weight of the extracted livers are added, the resulted mixtures are homogenized, and the centrifuged supernatant are recovered and used as liver-derived samples.\nSerum and liver TC concentrations are determined by an enzyme method using L-type Wako CHO•H (Wako Pure Chemical Industries Ltd.) or Cholestest CHO (Daiichi Pure Chemicals Co., Ltd.). Serum TG concentrations are determined by an enzyme method using L-type Wako TG•H (Wako Pure Chemical Industries Ltd.) or Autosera S TG-N (Daiichi Pure Chemicals Co., Ltd.) and a free glycerine elimination method. LDL-C concentrations are determined by a direct method using L-type Wako LDL-C•M (Wako Pure Chemical Industries Ltd.) or Cholestest LDL (Daiichi Pure Chemicals Co., Ltd.). Human serum was commonly used as a sample for the calibration curve for determinations of serum and liver TC concentrations, serum TG concentration, and serum LDL-C concentration. The effect of the test compound is shown by a suppression rate (%) of an increase in serum TC concentration due to feeding of the high cholesterol diet, a serum TG lowering rate (%), a suppression rate (%) of an increase in serum LDL-C concentration due to feeding of the high cholesterol diet, and a suppression rate (%) of an increase in liver TC concentration due to feeding of the high cholesterol diet calculated in accordance with the following equations.\nIn the Equation 2, A is the control group, B is the test compound group, and C is the normal group.\nIn the Equation 3, A is the control group, B is the test compound group, and C is the normal group.\nIn the Equation 4, A is the control group, B is the test compound group, and C is the normal group.\nIn the Equation 5, A is the control group, and B is the test compound group.\nThe following results were obtained from the study by this method on the effects of lowering serum TC, LDL-C, and TG, and liver TC in the hamsters fed with a high cholesterol diet which were given the test compounds for 7 days.\nThe compounds in which pyridyl of compound of example 51 and 55 was exchanged for phenyl, were used as comparative compound 1 and 2, respectively. In the same method as Example 112, the suppression rate (%) of an increase in serum TC concentration of comparative compound 1 and 2 were calculated.", "key": {"[1]": {"settings": "read-out: serum LDL-C lowering effect (suppression rate of an increase in serum LDL-C concentration)"}, "[2]": {"settings": "read-out: serum TC lowering effect (suppression rate of an increase in serum TC concentration)"}, "[3]": {"settings": "read-out: liver TC lowering effect (suppression rate of an increase in liver TC concentration)"}, "[4]": {"settings": "read-out: serum TG lowering effect (serum TG lowering rate)"}}, "note": "Read-outs that look alike come from different tables or passages of the source."}
{"smiles": "O=C1[C@H](SC[C@H](O)c2ccc(Cl)cc2)[C@@H](c2ccc(O)cc2)N1c1ccc(-c2cncc(F)c2)cc1", "note": "[Example 70, (3R,4R)-3-[(2R)-2-(4-chlorophenyl)-2-hydroxyethylthio]-1-[4-(5-fluoropyridin-3-yl)phenyl]-4-(4-hydroxyphenyl)azetidin-2-one]", "values": [{"measurement": "inhibition in vivo at 0.01 mg/kg", "setting": "[1]", "result": "≥ 30", "unit": "%"}, {"measurement": "inhibition in vivo at 0.01 mg/kg", "setting": "[2]", "result": "≥ 30", "unit": "%"}, {"measurement": "inhibition in vivo at 0.1 mg/kg", "setting": "[3]", "result": "≥ 50", "unit": "%"}]}
{"smiles": "O=Cc1cncc(-c2ccc(N3C(=O)[C@H](SC[C@H](O)c4ccc(F)cc4)[C@H]3c3ccc(O)cc3)cc2)c1", "note": "[Example 71, 5-(4-{(3R,4R)-3-[(2R)-2-(4-fluorophenyl)-2-hydroxyethylthio]-4-(4-hydroxyphenyl)-2-oxoazetidinyl}phenyl)pyridine-3-carbaldehyde]", "values": [{"measurement": "inhibition in vivo at 0.1 mg/kg", "setting": "[1]", "result": "≥ 50", "unit": "%"}, {"measurement": "inhibition in vivo at 0.1 mg/kg", "setting": "[2]", "result": "≥ 50", "unit": "%"}]}
{"smiles": "O=C1[C@H](SC[C@H](O)c2ccc(Cl)cc2)[C@@H](c2ccc(O)cc2O)N1c1ccc(-c2cncc(F)c2)cc1", "note": "[Example 72, (3R,4R)-3-[(2R)-2-(4-chlorophenyl)-2-hydroxyethylthio]-4-(2,4-dihydroxyphenyl)-1-[4-(5-fluoropyridin-3-yl)phenyl]azetidin-2-one]", "values": [{"measurement": "inhibition in vivo at 0.1 mg/kg", "setting": "[1]", "result": "≥ 50", "unit": "%"}, {"measurement": "inhibition in vivo at 0.1 mg/kg", "setting": "[2]", "result": "≥ 50", "unit": "%"}]}
{"smiles": "O=C1[C@H](SC[C@H](O)c2ccc(F)cc2)[C@@H](c2ccc(O)cc2O)N1c1ccc(-c2cncc(F)c2)cc1", "note": "[Example 73, (3R,4R)-3-[(2R)-2-(4-fluorophenyl)-2-hydroxyethylthio]-4-(2,4-dihydroxyphenyl)-1-[4-(5-fluoropyridin-3-yl)phenyl]azetidin-2-one]", "values": [{"measurement": "inhibition in vivo at 0.01 mg/kg", "setting": "[2]", "result": "≥ 30", "unit": "%"}, {"measurement": "inhibition in vivo at 0.1 mg/kg", "setting": "[1]", "result": "≥ 50", "unit": "%"}, {"measurement": "inhibition in vivo at 0.1 mg/kg", "setting": "[2]", "result": "≥ 50", "unit": "%"}]}
{"smiles": "Cc1cc(O)ccc1[C@@H]1[C@@H](SC[C@H](O)c2ccc(F)cc2)C(=O)N1c1ccc(-c2cncc(F)c2)cc1", "note": "[Example 74, (3R,4R)-3-[(2R)-2-(4-fluorophenyl)-2-hydroxyethylthio]-1-[4-(5-fluoropyridin-3-yl)phenyl]-4-(4-hydroxy-2-methylphenyl)azetidin-2-one]", "values": [{"measurement": "inhibition in vivo at 0.01 mg/kg", "setting": "[3]", "result": "≥ 30", "unit": "%"}, {"measurement": "inhibition in vivo at 0.01 mg/kg", "setting": "[2]", "result": "≥ 30", "unit": "%"}, {"measurement": "inhibition in vivo at 0.1 mg/kg", "setting": "[3]", "result": "≥ 50", "unit": "%"}, {"measurement": "inhibition in vivo at 0.1 mg/kg", "setting": "[1]", "result": "≥ 50", "unit": "%"}]}
{"smiles": "O=C1[C@H](SC[C@H](O)c2ccc(Cl)cc2)[C@@H](c2ccc(O)cc2O)N1c1ccc(-c2cncc(C(F)(F)F)c2)cc1", "note": "[Example 75, (3R,4R)-3-[(2R)-2-(4-chlorophenyl)-2-hydroxyethylthio]-4-(2,4-dihydroxyphenyl)-1-[4-(5-trifluoromethylpyridin-3-yl)phenyl]azetidin-2-one]", "values": [{"measurement": "inhibition in vivo at 0.01 mg/kg", "setting": "[3]", "result": "≥ 30", "unit": "%"}, {"measurement": "inhibition in vivo at 0.01 mg/kg", "setting": "[1]", "result": "≥ 30", "unit": "%"}, {"measurement": "inhibition in vivo at 0.1 mg/kg", "setting": "[3]", "result": "≥ 50", "unit": "%"}, {"measurement": "inhibition in vivo at 0.1 mg/kg", "setting": "[4]", "result": "≥ 20", "unit": "%"}]}
{"smiles": "O=C1[C@H](SC[C@H](O)c2ccc(F)cc2)[C@@H](c2ccc(O)cc2O)N1c1ccc(-c2cncc(C(F)(F)F)c2)cc1", "note": "[Example 76, (3R,4R)-3-[(2R)-2-(4-fluorophenyl)-2-hydroxyethylthio]-4-(2,4-dihydroxyphenyl)-1-[4-(5-trifluoromethylpyridin-3-yl)phenyl]azetidin-2-one]", "values": [{"measurement": "inhibition in vivo at 0.01 mg/kg", "setting": "[2]", "result": "≥ 30", "unit": "%"}]}
{"smiles": "O=C1[C@H](SC[C@H](O)c2ccccc2F)[C@@H](c2ccc(O)cc2)N1c1ccc(-c2cccnc2)cc1", "note": "[Example 77, (3R,4R)-3-[(2R)-2-(2-fluorophenyl)-2-hydroxyethylthio]-4-(4-hydroxyphenyl)-1-[4-(pyridin-3-yl)phenyl]azetidin-2-one]", "values": [{"measurement": "inhibition in vivo at 0.1 mg/kg", "setting": "[4]", "result": "≥ 20", "unit": "%"}]}
{"smiles": "Cc1cc(O)ccc1[C@@H]1[C@@H](SC[C@H](O)c2ccc(F)cc2)C(=O)N1c1ccc(-c2cncc(C#N)c2)cc1", "note": "[Example 80, 5-(4-{(3R,4R)-3-[(2R)-2-(4-fluorophenyl)-2-hydroxyethylthio]-4-(4-hydroxy-2-methylphenyl)-2-oxoazetidinyl}phenyl)pyridine-3-carbonitrile]", "values": [{"measurement": "inhibition in vivo at 0.1 mg/kg", "setting": "[1]", "result": "≥ 50", "unit": "%"}, {"measurement": "inhibition in vivo at 0.1 mg/kg", "setting": "[2]", "result": "≥ 50", "unit": "%"}]}
{"smiles": "O=C1[C@H](SC[C@H](O)c2ccc(Cl)c(F)c2)[C@@H](c2ccc(O)cc2)N1c1ccc(-c2cncc(F)c2)cc1", "note": "[Example 82, (3R,4R)-3-[(2R)-2-(4-chloro-3-fluorophenyl)-2-hydroxyethylthio]-1-[4-(5-fluoropyridin-3-yl)phenyl]-4-(4-hydroxyphenyl)azetidin-2-one]", "values": [{"measurement": "inhibition in vivo at 0.1 mg/kg", "setting": "[1]", "result": "≥ 50", "unit": "%"}, {"measurement": "inhibition in vivo at 0.1 mg/kg", "setting": "[2]", "result": "≥ 50", "unit": "%"}]}
{"smiles": "COc1ccc([C@@H](O)CS[C@H]2C(=O)N(c3ccc(-c4cccnc4)cc3)[C@@H]2c2ccc(O)cc2)cc1", "note": "[Example 84, (3R,4R)-3-[(2R)-2-hydroxy-2-(4-methoxyphenyl)ethylthio]-4-(4-hydroxyphenyl)-1-[4-(pyridin-3-yl)phenyl]azetidin-2-one]", "values": [{"measurement": "inhibition in vivo at 0.1 mg/kg", "setting": "[3]", "result": "≥ 50", "unit": "%"}]}
{"smiles": "O=C1[C@H](SC[C@H](O)c2ccc(Cl)cc2O)[C@@H](c2ccc(O)cc2)N1c1ccc(-c2cccnc2)cc1", "note": "[Example 89, (3R,4R)-3-[(2R)-2-(4-chloro-2-hydroxyphenyl)-2-hydroxyethylthio]-4-(4-hydroxyphenyl)-1-[4-(pyridin-3-yl)phenyl]azetidin-2-one]", "values": [{"measurement": "inhibition in vivo at 0.1 mg/kg", "setting": "[1]", "result": "≥ 50", "unit": "%"}, {"measurement": "inhibition in vivo at 0.1 mg/kg", "setting": "[2]", "result": "≥ 50", "unit": "%"}]}
{"smiles": "O=C1[C@H](SC[C@H](O)c2ccc(F)cc2)[C@@H](c2ccc(O)cc2O)N1c1ccc(-c2cncc(Cl)c2)cc1", "note": "[Example 92, (3R,4R)-3-[(2R)-2-(4-fluorophenyl)-2-hydroxyethylthio]-4-(2,4-dihydroxyphenyl)-1-[4-(5-chloropyridin-3-yl)phenyl]azetidin-2-one]", "values": [{"measurement": "inhibition in vivo at 0.01 mg/kg", "setting": "[1]", "result": "≥ 30", "unit": "%"}, {"measurement": "inhibition in vivo at 0.01 mg/kg", "setting": "[2]", "result": "≥ 30", "unit": "%"}, {"measurement": "inhibition in vivo at 0.1 mg/kg", "setting": "[4]", "result": "≥ 20", "unit": "%"}]}
{"smiles": "Cc1cncc(-c2ccc(N3C(=O)[C@H](SC[C@H](O)c4ccc(F)cc4)[C@H]3c3ccc(O)cc3O)cc2)c1", "note": "[Example 93, (3R,4R)-3-[(2R)-2-(4-fluorophenyl)-2-hydroxyethylthio]-4-(2,4-dihydroxyphenyl)-1-[4-(5-methylpyridin-3-yl)phenyl]azetidin-2-one]", "values": [{"measurement": "inhibition in vivo at 0.01 mg/kg", "setting": "[1]", "result": "≥ 30", "unit": "%"}, {"measurement": "inhibition in vivo at 0.01 mg/kg", "setting": "[2]", "result": "≥ 30", "unit": "%"}, {"measurement": "inhibition in vivo at 0.1 mg/kg", "setting": "[4]", "result": "≥ 20", "unit": "%"}]}
{"smiles": "Cc1ccc(-c2ccc(N3C(=O)[C@H](SC[C@H](O)c4ccc(F)cc4)[C@H]3c3ccc(O)cc3O)cc2)cn1", "note": "[Example 95, (3R,4R)-3-[(2R)-2-(4-fluorophenyl)-2-hydroxyethylthio]-4-(2,4-dihydroxyphenyl)-1-[4-(6-methylpyridin-3-yl)phenyl]azetidin-2-one]", "values": [{"measurement": "inhibition in vivo at 0.01 mg/kg", "setting": "[1]", "result": "≥ 30", "unit": "%"}, {"measurement": "inhibition in vivo at 0.01 mg/kg", "setting": "[2]", "result": "≥ 30", "unit": "%"}]}
{"smiles": "O=C1[C@H](SC[C@H](O)c2ccc(Cl)cc2)[C@@H](c2ccc(O)cc2O)N1c1ccc(-c2cncc(Cl)c2)cc1", "note": "[Example 96, (3R,4R)-3-[(2R)-2-(4-chlorophenyl)-2-hydroxyethylthio]-4-(2,4-dihydroxyphenyl)-1-[4-(5-chloropyridin-3-yl)phenyl]azetidin-2-one]", "values": [{"measurement": "inhibition in vivo at 0.01 mg/kg", "setting": "[3]", "result": "≥ 30", "unit": "%"}]}
{"smiles": "Cc1cncc(-c2ccc(N3C(=O)[C@H](SC[C@H](O)c4ccc(Cl)cc4)[C@H]3c3ccc(O)cc3O)cc2)c1", "note": "[Example 97, (3R,4R)-3-[(2R)-2-(4-chlorophenyl)-2-hydroxyethylthio]-4-(2,4-dihydroxyphenyl)-1-[4-(5-methylpyridin-3-yl)phenyl]azetidin-2-one]", "values": [{"measurement": "inhibition in vivo at 0.1 mg/kg", "setting": "[1]", "result": "≥ 50", "unit": "%"}, {"measurement": "inhibition in vivo at 0.1 mg/kg", "setting": "[2]", "result": "≥ 50", "unit": "%"}]}
{"smiles": "Cc1ccc(-c2ccc(N3C(=O)[C@H](SC[C@H](O)c4ccc(Cl)cc4)[C@H]3c3ccc(O)cc3O)cc2)cn1", "note": "[Example 98, (3R,4R)-3-[(2R)-2-(4-chlorophenyl)-2-hydroxyethylthio]-4-(2,4-dihydroxyphenyl)-1-[4-(6-methylpyridin-3-yl)phenyl]azetidin-2-one]", "values": [{"measurement": "inhibition in vivo at 0.01 mg/kg", "setting": "[1]", "result": "≥ 30", "unit": "%"}]}
